# Conditions: buffer; pH 7.4; 200.0 µM
row,Compound,solubility kinetic
1,CCc1nc2sc(C(=O)O)c(N)c2c2c1CCCC2,> 41.5 µg/mL
2,CC(Sc1ncccn1)C(=O)NC1CCCC1 (stereo not given),> 37.7 µg/mL
3,COc1ccc(NC(=O)C2CCCN(c3nccc(C)n3)C2)cc1 (stereo not given),3.8 µg/mL
4,CN(C)C(CNC(=O)c1cccc(C#N)c1)c1ccco1 (stereo not given),39.3 µg/mL
5,COc1cccc(C(=O)Nc2cccc3ccccc23)c1OC,14.5 µg/mL
6,Cc1ccc2nc(-c3ccccc3)c(-c3ccccc3)nc2c1,< 0.3 µg/mL
7,Cc1ccc(CN(C)c2ccc(S(=O)(=O)N3CCCC3)cn2)cc1,12.5 µg/mL
8,COc1ccc(NS(=O)(=O)c2cc(NC(=O)[C@H](C)NC(N)=O)ccc2N2CCCC2)cc1,> 69.2 µg/mL
9,O=C(Cc1ccccc1)NC(=S)Nc1ccc(OC(F)F)cc1,11.2 µg/mL
10,O=C1CC(Nc2cc(=O)[nH]c(=O)[nH]2)C(=O)N1c1ccccc1Cl (stereo not given),39.4 µg/mL
11,COc1ccccc1NC(=O)COC(=O)c1cc(C)oc1C,6.7 µg/mL
12,CCCCNC(=O)C1CC(=O)N(CCc2ccc(C)cc2)C1 (stereo not given),> 45.4 µg/mL
13,CSCCC(NC(=O)/C(=C/c1ccco1)NC(=O)c1ccco1)C(=O)O (stereo not given),> 56.8 µg/mL
14,O=C1c2ccccc2C(=O)N1c1cc([N+](=O)[O-])ccn1,29.2 µg/mL
15,Cc1c(NC(=O)CSCc2ccccc2)cccc1C(=O)O,> 47.3 µg/mL
16,CCOC(=O)CC1C(=O)NCCN1S(=O)(=O)c1ccc(C)cc1 (stereo not given),> 51.1 µg/mL
17,CCc1noc(C)c1C(=O)NCCc1ccccc1,> 38.7 µg/mL

row,Compound,solubility kinetic
1,CCN1CCN(c2ccc(S(=O)(=O)N3CCOCC3)cc2N)CC1,> 53.2 µg/mL
2,COc1ccc(Nc2nc(N)c(C(=O)c3ccc(OC)cc3)s2)cc1,1.4 µg/mL
3,Cc1ccc(S(=O)(=O)NC(CC(=O)O)c2ccc(F)cc2)cc1 (stereo not given),34.8 µg/mL
4,CCCCC(C(=O)O)C(C)CC(=O)Nc1nccs1 (stereo not given),> 42.7 µg/mL
5,CC1C(=O)C(C)C(c2ccc(O)cc2)NC1c1ccc(O)cc1 (stereo not given),45.4 µg/mL
6,Cc1ccc(CONC(=O)c2cccc(C)c2)cc1,38.2 µg/mL
7,Cc1cccc(NC(=O)c2cc(=O)[nH]c3ccccc23)c1,3.1 µg/mL
8,CC(=O)Nc1ccc(N2C(=O)C3C4C=CC(CC4)C3C2=O)cc1 (stereo not given),> 46.6 µg/mL
9,CN(C(=O)CN1C(=O)c2ccc([N+](=O)[O-])cc2C1=O)C1CCCCC1,> 51.8 µg/mL
10,COc1ccccc1C(=O)COC(=O)c1ccc(N(C)C)cc1,1.1 µg/mL
11,OCCNc1nc(Cl)nc(NCc2ccco2)n1,> 40.5 µg/mL
12,O=C(Nc1nccs1)C1CC(=O)N(c2ccccc2)C1 (stereo not given),> 43.1 µg/mL
13,CC(=O)c1c(C)[nH]c(C(=O)COC(=O)Cc2ccccc2F)c1C,> 49.7 µg/mL
14,Cc1ccc(NC(=O)Nc2cccnc2)cc1Cl,23.3 µg/mL
15,CC(O)CNCCOc1ccccc1-c1ccccc1.O=C(O)C(=O)O (stereo not given),> 54.2 µg/mL
16,CCOc1ccc(NC(=O)N(c2ccccc2)c2ccccc2)cc1,2.5 µg/mL

# Continued, values first:
row,solubility kinetic,Compound
1,> 42.6 µg/mL,COCCNC(=O)COC(=O)c1cccnc1SC
2,> 48.6 µg/mL,CCCc1cc(=O)oc2c(CN(CC)CC)c(O)c(Cl)cc12
3,> 60.4 µg/mL,Cc1ccc(S(=O)(=O)[O-])cc1.Cn1cc[n+](C)c1COc1ccc(C=O)cc1
4,> 45.1 µg/mL,O=C(NC1CCCCC1)C1CC(=O)N(Cc2ccccc2)C1 (stereo not given)
5,< 0.2 µg/mL,O=[N+]([O-])c1cccc(-c2noc(-c3cccs3)n2)c1
6,> 54.5 µg/mL,CCOc1ccccc1NC(=O)COC(=O)CN1C(=O)NC(C)(C)C1=O
7,21.2 µg/mL,CCN(CC(=O)Nc1ccc(S(=O)(=O)N2CCCC2)cc1)CC(=O)Nc1ccccc1C(F)(F)F
8,> 39 µg/mL,CCCn1c(=O)c2ccccc2n2c(=S)[nH]nc12
9,0.3 µg/mL,Brc1ccc(Nc2nc(-c3cccnc3)cs2)cc1
10,> 48.7 µg/mL,CCN(c1cccc(C)c1)S(=O)(=O)c1csc(C(N)=O)c1
11,< 0.8 µg/mL,COC(=O)c1sccc1-c1ccc(/C=N/OC(=O)c2cccs2)o1
12,6.3 µg/mL,COc1ccc(OC)c2c(C)cc(N3CCCCCC3)nc12
13,8.4 µg/mL,CC1=C(C(=O)NC(C)c2ccccc2)C2(CCC(C)CC2)OC1=O (stereo not given)
14,6.1 µg/mL,O=C(Nc1ccc2c(c1)OCO2)c1cc(Cl)ccn1
15,> 33.5 µg/mL,CCC(C)NC(=O)c1ccccc1SC (stereo not given)
16,> 52.1 µg/mL,CC(=O)c1ccc(OCC(=O)OC(C)C(=O)NC2CCCCC2)cc1 (stereo not given)
17,8.2 µg/mL,CC(NC(=S)NC(=O)c1cccs1)c1ccccc1 (stereo not given)
18,> 51.7 µg/mL,Cc1cc(C)[n+](-c2ccc(Oc3ccccc3)c(S(=O)(=O)[O-])c2)[nH]1
19,11.1 µg/mL,CCN(CC)S(=O)(=O)c1cccc(-c2cn3cccnc3n2)c1
20,> 44.9 µg/mL,COc1ccccc1CCC(=O)NNC(=O)c1ccncc1
21,23.9 µg/mL,O=C(NC1=NCCS1)c1cccc(OC(F)F)c1
22,< 0.3 µg/mL,FC(F)(F)c1cnc(N2CCSCC2)c(Cl)c1
23,5.1 µg/mL,CC(=O)c1cccc(NC(=O)/C=C/c2ccc(S(=O)(=O)N3CCOCC3)cc2)c1
24,> 44.5 µg/mL,Cn1ccsc1=NC(=O)c1ccc(S(C)(=O)=O)cc1
25,> 41.1 µg/mL,COc1ccc2cc(C(=O)NCC3CCCO3)[nH]c2c1 (stereo not given)
26,24.8 µg/mL,O=C(COC(=O)c1ccco1)Nc1ccc(Cl)cn1
27,> 56.8 µg/mL,Cc1ccc(Nc2nnc(SCC(=O)NCC3CCCO3)s2)cc1C (stereo not given)

# Source: PubChem BioAssay AID1996
